Test results reported in patent publication US10428151B2, “Treatment of hematologic malignancies with an anti-CXCR4 antibody” (BRISTOL-MYERS SQUIBB COMPANY, priority 2011, dated 2019).
Several values for one entry are separate records, joined by “and”; a condition that tells them apart may be missing. Equal values may be shown once.

Key:
[1] = test system: Namalwa Burkitt's lymphoma cells; assay: Namalwa subcutaneous xenograft; format: in vivo, mouse
Protocol: Additional subcutaneous xenograft tumor models were tested for the ability of anti-CXCR4 antibodies to inhibit tumor growth, in experiments similar to those described above and in Example 9. […] Although the tumor cells in vivo were stainable by the mAb by immunohistochemistry, it is unclear at what stage of their tumor growth CXCR4 began to be expressed.

Ramos cells = assay: Ramos lymphoma xenograft in SCID mice; format: in vivo
Protocol: When a mean and median tumor size of 80 mm^3 was reached, the mice were randomized (n=8) according to tumor volume. […] Tumors and body weights were measured twice weekly. Tumor volumes were measured in three dimensions (L×W×H/2) with a Fowler Electronic Digital Caliper (Model 62379-531; Fred V. Fowler Co., Newton, Mass.), and data was electronically recorded using Study Director software from StudyLog Systems, Inc. (South San Francisco, Calif.). Animals were checked daily for postural, grooming, and respiratory changes, as well as lethargy. Mice were euthanized when the tumors reached the 2000 mm^3 endpoint or appeared ulcerated.

HL-60 cells = assay: HL-60 AML xenograft in SCID mice; format: in vivo; details: for median tumor growth inhibition: Day 27, 10 mg/kg/dose
Text: To assess the antibody's efficacy in AML, two cytarabine-resistant mouse xenograft models, HL-60 and Nomo-1 were used. CXCR4 expression in each cell line was confirmed by FACS staining (FIG. 4A). SCID mice were subcutaneously implanted with 10 million HL-60 cells as described in Example 14.

KG-1 = KG-1 tumor growth inhibition (monotherapy); format: in vivo
MM cells [2] = assay: Apoptotic and CXCL12 signalling pathways in MM cells; format: cell-based
Text: The BMS936564 antibody targeted MM cells in the context of BM milieu by overcoming BMSC-induced proliferation of tumor cells. […] Importantly, as described in Example 16, BMS936564 inhibited MM cell proliferation in vivo in xenograft mouse models.

melanoma = melanoma xenograft model; compared to vehicle-treated mice; Roccaro et al., 2012; cited from earlier work
MM cells [3] = details: Roccaro et al., 2012; cited from earlier work

Q: For “BMS-936564: fully human anti-CXCR4 monoclonal antibody; VH SEQ ID NO: 25, VL SEQ ID NO: 29”, which “% Tumor Growth Inhibition (Monotherapy)” value [1] is on record?
A: 66%

Q: What about the tumor growth inhibition ([1]; 3 mg/kg) of the same substance?
A: approximately 70%

Q: And the “time the inhibition was maintained” value (Ramos cells; 15 mg/kg/dose IP Days 0 and 7)?
A: 60 days

Q: What about the median growth inhibition (Ramos cells; Day 21, 15 mg/kg/dose IP Days 0 and 7) of the same substance?
A: 99%

Q: And the “% Tumor Growth Inhibition (Monotherapy)” value (Ramos cells; Ramos)?
A: 80%

Q: And the “median tumor growth inhibition” value (HL-60 cells; compared to isotype)?
A: 88%

Q: And the “median tumor growth inhibition” value (HL-60 cells; compared to vehicle)?
A: 83%

Q: And the “% Tumor Growth Inhibition (Monotherapy)” value (HL-60 cells; HL60)?
A: 60% and 82%

Q: And the “% Tumor Growth Inhibition (Monotherapy)” value (KG-1)?
A: 23%

Q: What about the “CXCL12-induced ERK-, Aid-, and Src-phosphorylation” value (MM cells [2]) of the same substance?
A: inhibited by BMS936564 in a dose-dependent manner

Q: And the “activation of apoptotic pathways in MM cells” value (MM cells [2])?
A: cleavage of caspase-9 and PARP

Q: And the number of metastasis (melanoma)?
A: reduced number of metastasis

Q: What about the “migration of MM cells toward CXCL12 and primary MM BMSCs” value (MM cells [3]) of the same substance?
A: inhibited migration
